Experimental data from US9346761B2, “Arginine methyltransferase inhibitors and uses thereof” (Epizyme, Inc., priority 2013, dated 2016).

Legend:
[1] = molecular target: T1, Full-length human PRMT1 isoform 1 (Homo sapiens, UniProt Q99873); experiment: PRMT1 biochemical assay (3H-SAM Flashplate, peptide substrate)
T1 construct: GST-tagged PRMT1; made in house; host or cells: High Five insect cells (baculovirus, pFastBacI)
Summary of the method: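 GST-tagged full-length PRMT1 from baculovirus-infected cells, preincubated 30 min at room temperature with compound in 20 mM Bicine pH 7.6, TCEP, BSG, Tween 20. Reaction started with 3H-SAM plus biotinylated peptide, stopped with 300 uM unlabelled SAM. Streptavidin Flashplate capture and scintillation counting; % inhibition curve-fitted for IC50.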

Full-length human PRMT8 = molecular target: T2, Full-length human PRMT8 (Homo sapiens, UniProt Q9NR22); experiment: PRMT8 biochemical assay (3H-SAM Flashplate, peptide substrate)
T2 construct: Full-length human PRMT8 (NM_019854.4) isoform 1 transcript clone; made in house
Excerpt: General Materials. S-adenosylmethionine (SAM), S-adenosylhomocysteine (SAH), bicine, Tween20, dimethylsulfoxide (DMSO), bovine skin gelatin (BSG), isopropyl-β-D-thiogalactopyranoside (IPTG), and Tris(2-carboxyethyl)phosphine hydrochloride solution (TCEP) were purchased from Sigma-Aldrich at the highest level of purity possible. ^3H-SAM was purchase from American Radiolabeled Chemicals with a specific activity of 80 Ci/mmol. 384-well streptavidin Flashplates were purchased from PerkinElmer.
Substrates. Peptide representative of human histone H4 residues 31-45 was synthesized with an N-terminal linker-affinity tag motif and a C-terminal amide cap by 21st Century Biochemicals.
Protein Expression. E. coli (BL21(DE3) Gold, Stratagene) made competent by the CaCl2 method were transformed with the PRMT8 construct and ampicillin selection. Protein over-expression was accomplished by growing the PRMT8 expressing E. coli clone and inducing expression with 0.3 mM IPTG at 16° C. The culture was grown for 12 hours, harvested by centrifugation, and stored at −80° C. for purification.
Protein Purification. […] GST-tagged PRMT8 was eluted with 50 mM Tris, 2 mM glutathione, pH 7.8. Pooled fractions were cleaved by thrombin (10 U) and dialysed in buffer A. GST was removed by reloading the cleaved protein sample onto glutathione sepharose column and PRMT8 was collected in the flow-through fractions. PRMT8 was purified further by ceramic hydroxyapatite chromatography. The column was washed with 50 mM phosphate buffer, 100 mM NaCl, 5% glycerol, 5 mM β-mercaptoethanol, pH 7.8 and PRMT8 was eluted by 100 mM phosphate in the same buffer. Protein was concentrated and buffer was exchanged to 50 mM Tris, 300 mM NaCl, 10% glycerol, 5 mM β-mercaptoethanol, pH 7.8 by ultrafiltration.
General Procedure for PRMT8 Enzyme Assays on Peptide Substrates. The assays were all performed in a buffer consisting of 20 mM Bicine (pH=7.6), 1 mM TCEP, 0.005% BSG, and 0.002% Tween 20, prepared on the day of use. […] DMSO (1 ul) was added to Columns 11, 12, 23, 24, rows A-H for the maximum signal control and 1 ul of SAH, a known product and inhibitor of PRMT8, was added to columns 11, 12, 23, 24, rows I-P for the minimum signal control. A cocktail (40 ul) containing the PRMT8 enzyme was added by Multidrop Combi (Thermo-Fisher). The compounds were allowed to incubate with PRMT8 for 30 min at room temperature, then a cocktail (10 ul) containing ^3H-SAM and peptide was added to initiate the reaction (final volume=51 ul). […] The assays were stopped by the addition of non-radiolabeled SAM (10 ul) to a final concentration of 400 uM, which dilutes the ^3H-SAM to a level where its incorporation into the peptide substrate is no longer detectable. 50 ul of the reaction in the 384-well polypropylene plate was then transferred to a 384-well Flashplate and the biotinylated peptides were allowed to bind to the streptavidin surface for at least 1 hour before being washed once with 0.1% Tween20 in a Biotek ELx405 plate washer. The plates were then read in a PerkinElmer TopCount plate reader to measure the quantity of ^3H-labeled peptide bound to the Flashplate surface, measured as disintegrations per minute (dpm) or alternatively, referred to as counts per minute (cpm).
Where dpm=disintegrations per minute, cmpd=signal in assay well, and min and max are the respective minimum and maximum signal controls.
Where top and bottom are the normally allowed to float, but may be fixed at 100 or 0 respectively in a 3-parameter fit. The Hill Coefficient normally allowed to float but may also be fixed at 1 in a 3-parameter fit. Y is the % inhibition and X is the compound concentration.

T2 sequence (Q9NR22 whole entry, canonical isoform): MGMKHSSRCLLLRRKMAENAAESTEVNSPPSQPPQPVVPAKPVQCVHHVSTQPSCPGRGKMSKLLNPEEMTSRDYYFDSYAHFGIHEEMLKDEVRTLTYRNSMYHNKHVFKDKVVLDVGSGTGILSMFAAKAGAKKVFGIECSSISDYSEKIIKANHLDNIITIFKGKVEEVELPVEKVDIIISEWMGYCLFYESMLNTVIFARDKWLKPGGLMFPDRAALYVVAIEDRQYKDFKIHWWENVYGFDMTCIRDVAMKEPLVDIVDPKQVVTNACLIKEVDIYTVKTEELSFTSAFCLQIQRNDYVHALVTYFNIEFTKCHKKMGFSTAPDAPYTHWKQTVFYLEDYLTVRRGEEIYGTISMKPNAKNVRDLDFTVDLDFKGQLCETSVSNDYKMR
T1 sequence (Q99873 with tags, fused parts or gaps): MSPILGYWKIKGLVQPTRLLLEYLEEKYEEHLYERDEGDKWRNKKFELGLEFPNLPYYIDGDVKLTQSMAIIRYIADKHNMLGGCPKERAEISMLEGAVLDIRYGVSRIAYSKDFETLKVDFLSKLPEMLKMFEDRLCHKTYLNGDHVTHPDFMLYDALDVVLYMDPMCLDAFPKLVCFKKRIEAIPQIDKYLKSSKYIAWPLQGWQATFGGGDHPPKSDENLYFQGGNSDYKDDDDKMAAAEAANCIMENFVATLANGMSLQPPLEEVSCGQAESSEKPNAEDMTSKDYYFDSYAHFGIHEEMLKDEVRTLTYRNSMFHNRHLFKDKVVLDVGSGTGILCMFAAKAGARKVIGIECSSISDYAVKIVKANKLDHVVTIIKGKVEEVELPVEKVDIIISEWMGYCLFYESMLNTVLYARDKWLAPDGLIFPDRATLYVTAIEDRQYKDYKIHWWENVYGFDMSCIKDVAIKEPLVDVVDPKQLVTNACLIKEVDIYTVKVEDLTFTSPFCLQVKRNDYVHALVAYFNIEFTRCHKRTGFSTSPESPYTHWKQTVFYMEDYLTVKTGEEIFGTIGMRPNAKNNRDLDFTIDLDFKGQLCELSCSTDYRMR

Compound | IC50 [1] | IC50 (Full-length human PRMT8)
COCCn1cc(CN(C)CCN)c(-c2ccc(F)cc2)n1 [Compound 5] | 1010 to 3000 nM | 3010 to 10000 nM
COCCn1ncc(CN(C)CCN)c1-c1ccc(F)cc1 [Compound 6] | 3010 to 10000 nM | 
CCn1ncc(CN(C)CCNC)c1-c1ccc(F)cc1 [Compound 7] | 101 to 1000 nM | 3010 to 10000 nM
CCn1cc(CN(C)CCNC)c(-c2ccc(F)cc2)n1 [Compound 8] | 1010 to 3000 nM | 3010 to 10000 nM
CN(CCN)Cc1c[nH]nc1-c1ccc(Cl)cc1 [Compound 95] | < 100 nM | 101 to 1000 nM
CN(CCN)Cc1c[nH]nc1-c1ccc(OCC(F)(F)F)cc1 [Compound 96] | < 100 nM | 101 to 1000 nM
CC(C)Oc1ccc(-c2n[nH]cc2CN(C)CCN)cc1F [Compound 97] | < 100 nM | < 100 nM
CN(CCN)Cc1c[nH]nc1-c1ccc(C2CCOCC2)cc1 [Compound 98] | < 100 nM | 101 to 1000 nM
CN(CCN)Cc1c[nH]nc1-c1ccc(F)cc1F [Compound 99] | < 100 nM | 1010 to 3000 nM
CN(CCN)Cc1n[nH]cc1-c1ccc(C#N)cc1 [Compound 100] | < 100 nM | 101 to 1000 nM
CC(C)c1ccc(-c2c[nH]nc2CN(C)CCN)cc1 [Compound 101] | < 100 nM | 101 to 1000 nM
CN(CCN)Cc1n[nH]cc1-c1ccc(Cl)cc1 [Compound 102] | < 100 nM | 101 to 1000 nM
CN(CCN)Cc1n[nH]cc1-c1ccc(C(F)(F)F)cc1 [Compound 103] | < 100 nM | 101 to 1000 nM
CN(CCN)Cc1n[nH]cc1-c1ccc(C2CC2)cc1 [Compound 104] | < 100 nM | 101 to 1000 nM
CN(CCN)Cc1n[nH]cc1-c1ccc(OC(F)(F)F)cc1 [Compound 105] | < 100 nM | 101 to 1000 nM
CN(CCN)Cc1c[nH]nc1-c1cc(F)ccc1Cl [Compound 106] | 101 to 1000 nM | 3010 to 10000 nM
COc1ccc(-c2n[nH]cc2CN(C)CCN)c(F)c1 [Compound 107] | < 100 nM | 101 to 1000 nM
Cc1ccc(-c2n[nH]cc2CN(C)CCN)c(F)c1 [Compound 108] | < 100 nM | 1010 to 3000 nM
COc1ccccc1-c1n[nH]cc1CN(C)CCN [Compound 109] | 101 to 1000 nM | 1010 to 3000 nM
Cc1cc(C#N)ccc1-c1n[nH]cc1CN(C)CCN [Compound 110] | < 100 nM | 101 to 1000 nM

Compound | IC50 [1] | IC50 (Full-length human PRMT8)
CN(CCN)Cc1c[nH]nc1-c1cc(F)cc(F)c1 [Compound 111] | < 100 nM | 101 to 1000 nM
CC(=O)c1cccc(-c2n[nH]cc2CN(C)CCN)c1 [Compound 112] | < 100 nM | 101 to 1000 nM
CN(CCN)Cc1cnn(CC(O)CO)c1-c1ccc(F)cc1 (centres unmarked) [Compound 113] | 1010 to 3000 nM | 3010 to 10000 nM
CN(CCN)Cc1c[nH]nc1-c1ccc(OC2CC2)cc1 [Compound 114] | < 100 nM | < 100 nM
CC(O)c1ccc(-c2n[nH]cc2CN(C)CCN)cc1 (centres unmarked) [Compound 115] | < 100 nM | 1010 to 3000 nM
CN(CCN)Cc1c[nH]nc1-c1ccc(C2CC2)cc1 [Compound 116] | < 100 nM | 101 to 1000 nM
CN(CCN)Cc1c[nH]nc1-c1ccc(C(F)(F)F)c(Cl)c1 [Compound 117] | < 100 nM | < 100 nM
CN(CCN)Cc1c[nH]nc1-c1ccc(Cl)c(F)c1 [Compound 118] | < 100 nM | 101 to 1000 nM
CN(CCN)Cc1n[nH]cc1-c1ccc(OC2CC2)cc1 [Compound 119] | < 100 nM | 101 to 1000 nM
CN(CCN)Cc1c[nH]nc1-c1cc(F)cc(Cl)c1 [Compound 121] | < 100 nM | 101 to 1000 nM
CN(CCN)Cc1c[nH]nc1-c1cccc(Cl)c1 [Compound 122] | < 100 nM | 101 to 1000 nM
CN(CCN)Cc1c[nH]nc1-c1cccc(Cl)c1F [Compound 123] | < 100 nM | 101 to 1000 nM
CN(CCN)Cc1c[nH]nc1-c1ccc(F)c(Cl)c1 [Compound 124] | < 100 nM | 101 to 1000 nM
COc1ccc(-c2n[nH]cc2CN(C)CCN)cc1Cl [Compound 125] | < 100 nM | 101 to 1000 nM
Cc1ccc(-c2n[nH]cc2CN(C)CCN)cc1Cl [Compound 126] | < 100 nM | 101 to 1000 nM
COc1cc(Cl)cc(-c2n[nH]cc2CN(C)CCN)c1 [Compound 127] | < 100 nM | 101 to 1000 nM
CN(CCN)Cc1cn(CC2CCOCC2)nc1-c1ccc(F)cc1 [Compound 128] | 3010 to 10000 nM | > 10000 nM
Cc1c(F)cccc1-c1n[nH]cc1CN(C)CCN [Compound 129] | 101 to 1000 nM | 101 to 1000 nM
COc1cccc(-c2n[nH]cc2CN(C)CCN)c1 [Compound 130] | 101 to 1000 nM | 101 to 1000 nM
Cc1cccc(-c2n[nH]cc2CN(C)CCN)c1 [Compound 131] | < 100 nM | 101 to 1000 nM

Compound | IC50 [1] | IC50 (Full-length human PRMT8)
CN(CCN)Cc1c[nH]nc1-c1ccc(Cl)cc1F [Compound 132] | < 100 nM | 101 to 1000 nM
Cc1cc(Cl)ccc1-c1n[nH]cc1CN(C)CCN [Compound 133] | < 100 nM | 101 to 1000 nM
COc1ccc(-c2n[nH]cc2CN(C)CCN)cc1F [Compound 134] | < 100 nM | 101 to 1000 nM
CN(CCN)Cc1c[nH]nc1-c1ccc(C(F)(F)F)cc1Cl [Compound 135] | < 100 nM | 1010 to 3000 nM
CCNC(=O)c1ccc(-c2n[nH]cc2CN(C)CCN)cc1 [Compound 136] | < 100 nM | 101 to 1000 nM
CN(CCN)Cc1c[nH]nc1-c1cc(Cl)cc(Cl)c1 [Compound 137] | < 100 nM | 101 to 1000 nM
CN(CCN)Cc1n[nH]cc1-c1ccc(OC(F)F)cc1 [Compound 138] | < 100 nM | 101 to 1000 nM
CN(CCN1CCCC1)Cc1c[nH]nc1-c1ccc(C#N)cc1 [Compound 139] | > 10000 nM | > 10000 nM
CN(CCN)Cc1c[nH]nc1-c1ccccc1C#N [Compound 140] | 101 to 1000 nM | 3010 to 10000 nM
CN(CCN)Cc1c[nH]nc1-c1ccc(C(F)(F)F)c(F)c1 [Compound 141] | < 100 nM | 101 to 1000 nM
COc1cc(-c2n[nH]cc2CN(C)CCN)ccc1F [Compound 142] | < 100 nM | 101 to 1000 nM
CCN(CC)C(=O)c1ccc(-c2n[nH]cc2CN(C)CCN)cc1 [Compound 143] | 101 to 1000 nM | 1010 to 3000 nM
CC(C)Oc1ccc(-c2c[nH]nc2CN(C)CCN)cc1F [Compound 144] | < 100 nM | 101 to 1000 nM
CN(CCN)Cc1n[nH]cc1-c1ccc(C2CCOCC2)cc1 [Compound 145] | < 100 nM | 101 to 1000 nM
COc1ccc(-c2n[nH]cc2CN(C)CCN)c(Cl)c1 [Compound 146] | < 100 nM | 1010 to 3000 nM
CN(CCN)Cc1c[nH]nc1-c1cc(C#N)ccc1Cl [Compound 147] | 1010 to 3000 nM | > 10000 nM
CN(CCN)Cc1c[nH]nc1-c1ccc(C(F)(F)F)cc1F [Compound 148] | 101 to 1000 nM | 101 to 1000 nM
CN(CCN)Cc1c[nH]nc1-c1cccc(N(C)C)c1 [Compound 149] | < 100 nM | 101 to 1000 nM
CCOC(=O)c1cccc(-c2n[nH]cc2CN(C)CCN)c1 [Compound 150] | < 100 nM | 101 to 1000 nM
COc1cc(F)ccc1-c1n[nH]cc1CN(C)CCN [Compound 151] | 101 to 1000 nM | 1010 to 3000 nM
